Assay results taken from ChEMBL document CHEMBL4706478, “Design, Synthesis, and Preclinical Evaluation of Fused Pyrimidine-Based Hydroxamates for the Treatment of Hepatocellular Carcinoma” (J Med Chem, 2018).

Assays:
[1] = AUC (0 to infinity) in Balb/c mouse at 50 mg/kg, po by mass spectrometry; type: ADME, organism-based; parameters: route oral, time infinity, dose 50 mg/kg; settings: in vivo
[2] = Oral bioavailability in Balb/c mouse at 50 mg/kg by mass spectrometry; type: ADME, organism-based; settings: in vivo
[3] = Cmax in Balb/c mouse at 150 mg/kg, po by mass spectrometry; type: ADME, organism-based; parameters: route oral, dose 150 mg/kg; settings: in vivo
[4] = Oral bioavailability in Balb/c mouse at 150 mg/kg by mass spectrometry; type: ADME, organism-based; settings: in vivo
[5] = physchem; settings: n-octanol/water, pH 7.4
[6] = Tmax in Balb/c mouse at 50 mg/kg, po by mass spectrometry; type: ADME, organism-based; settings: in vivo
[7] = AUC (0 to infinity) in Balb/c mouse at 150 mg/kg, po by mass spectrometry; type: ADME, organism-based; parameters: route oral, time infinity, dose 150 mg/kg; settings: in vivo
[8] = Tmax in Balb/c mouse at 150 mg/kg, po by mass spectrometry; type: ADME, organism-based; settings: in vivo
[9] = Clearance in Balb/c mouse at 50 mg/kg, iv by mass spectrometry; type: ADME, organism-based; settings: in vivo
[10] = Cmax in Balb/c mouse at 50 mg/kg, po by mass spectrometry; type: ADME, organism-based; parameters: route oral, dose 50 mg/kg; settings: in vivo
[11] = Volume of distribution at steady state in Balb/c mouse at 50 mg/kg, iv by mass spectrometry; type: ADME, organism-based; settings: in vivo, read-out: Vdss
[12] = AUC (0 to infinity) in Balb/c mouse at 50 mg/kg, iv by mass spectrometry; type: ADME, organism-based; parameters: route intravenous, time infinity, dose 50 mg/kg; settings: in vivo
[13] = in vitro; settings: mouse, liver microsomes
[14] = in vitro; settings: human, pooled liver microsomes
[15] = in vitro; settings: rat, liver microsomes

O=C(CCCCCCn1cnc2c(N3CCOCC3)nc(-c3cccc(CO)c3)nc21)NO
AUC(0-inf) [1]: 0.97 µM·h
bioavailability [2]: 5.8%
Cmax [3]: 10.1 µM
bioavailability [4]: 18.1%
logD [5]: 2.07
Tmax [6]: 10.2 min
AUC(0-inf) [7]: 9.06 µM·h
Tmax [8]: 30 min
clearance [9]: 110 mL/min/kg
Cmax [10]: 3.9 µM
Vd [11]: 3.06 L/kg
AUC(0-inf) [12]: 16.7 µM·h

O=C(CCCCCCC(=O)Nc1ccccc1)NO [VORINOSTAT]
logD [5]: 1.05

COc1ccc(-c2nc(N3CCOCC3)c3sc(CN(C)c4ncc(C(=O)NO)cn4)cc3n2)cn1 [FIMEPINOSTAT]
logD [5]: 3.07

Nc1ncc(-c2nc(N3CCOCC3)c3ncn(CCCCCCC(=O)NO)c3n2)cn1
half-life at 1 h, 5 µM [13]: > 60 min
half-life at 1 h, 5 µM [14]: > 60 min
half-life at 1 h, 5 µM [15]: 35 min
